What was measured:
[1] = target: T1, MMP9 (Homo sapiens, UniProt P14780); test: Activation of proMMP9 by human fetal lung fibroblast (HFL-1) cultures (Western blot); type: cell-based; settings: 3.3 μM, HFL-1, mAb-L51/82
T1 construct: host or cells: HFL-1 human fetal lung fibroblasts
Experimental: Activation of proMMP9 by human fetal lung fibroblast cultures Compound-α was assessed additionally for ability to block the maturation of proMMP9 to active MMP9 in cultures of human fetal lung fibroblasts (HFL-1, American Type Culture Collection #CCL-153). Unlike rat synoviocytes, HFL-1 cells were unable to process proMMP9 to the active form without addition of neutrophil elastase. […] Rather, the function of elastase in this assay may be to inactivate tissue inhibitors of matrix metalloproteinases (TIMPs) that repress endogenous pathways of MMP9 activation (Am J Respir Crit. Care Med; 1999; 159:1138-46).
HLF-1 were maintained in monolayer culture in DMEM with 10% FCS and were used between passage numbers 5-15. HLF-1 were embedded in collagen gels as described for rat SCW synoviocytes (vida supra). Half mL gels containing 0.4 million cells were dislodged into wells of 12 well Costar plates containing 1 mL/well of DMEM adjusted to contain 0.05% BSA and 100 ng/mL human TNFα (R&D Systems Cat #210-TA/CF). After overnight culture (37° C. and 5% CO2) wells were adjusted to contain an additional 0.5 mL of DMEM containing 0.05% BSA and with or without 13.2 μM Compound-α (final concentration was 3.3 μM Compound-α). Next, cultures were adjusted to contain 30 nM human elastase (Innovative Research). The plates were cultured an additional 72 hrs, at which time MMP9 secreted into the conditioned media was bound to gelatin-sepharose and evaluated by Western blot analysis as described for the rat synoviocyte cultures (vida supra). mAb-51/82 detected three forms of MMP9 in HFL-1 cultures.
These included a form of approximately 100 kD with mobility similar to recombinant rat proMMP9, an approximately 80 kD form with mobility similar to rat active MMP9, and an approximately 86 kD intermediate form. In the absence of Compound-α, most of the MMP9 was present as the 80 kD form. In the presence of Compound-α, the 80 kD form was a minor fraction of the total signal while nearly half of the signal were contributed each by the 100 kD and 86 kD forms. […]
A second experiment was performed to determine if the 80 kD form was mature active MMP9 and to determine the potency of Compound-α as an inhibitor of MMP9 maturation in this assay. HFL-1 cells embedded in collagen gels were cultured as described above in the presence of TNFα overnight and the cultures were then adjusted to contain 30 nM elastase and graded concentrations of Compound-α for an additional 72 hrs at which time MMP9 secreted into the conditioned media was bound to gelatin-sepharose and evaluated by Western blot analysis for active MMP9 using pAb-1246 raised against the N-terminal neoepitope of active MMP9 (Table 5). In the absence of Compound-α, pAb-1246 readily detected MMP9 with an electrophoretic mobility of approximately 80 kD. […]

[2] = target: T2, MMP9 (Rattus norvegicus, UniProt P50282); test: Pro and active MMP9 in ankles of rats with SCW-induced arthritis (Western blot); type: in vivo
T2 construct: endogenous in cells; host or cells: primary synoviocytes from arthritic female Lewis rats
T2 sequence (P50282 108-708): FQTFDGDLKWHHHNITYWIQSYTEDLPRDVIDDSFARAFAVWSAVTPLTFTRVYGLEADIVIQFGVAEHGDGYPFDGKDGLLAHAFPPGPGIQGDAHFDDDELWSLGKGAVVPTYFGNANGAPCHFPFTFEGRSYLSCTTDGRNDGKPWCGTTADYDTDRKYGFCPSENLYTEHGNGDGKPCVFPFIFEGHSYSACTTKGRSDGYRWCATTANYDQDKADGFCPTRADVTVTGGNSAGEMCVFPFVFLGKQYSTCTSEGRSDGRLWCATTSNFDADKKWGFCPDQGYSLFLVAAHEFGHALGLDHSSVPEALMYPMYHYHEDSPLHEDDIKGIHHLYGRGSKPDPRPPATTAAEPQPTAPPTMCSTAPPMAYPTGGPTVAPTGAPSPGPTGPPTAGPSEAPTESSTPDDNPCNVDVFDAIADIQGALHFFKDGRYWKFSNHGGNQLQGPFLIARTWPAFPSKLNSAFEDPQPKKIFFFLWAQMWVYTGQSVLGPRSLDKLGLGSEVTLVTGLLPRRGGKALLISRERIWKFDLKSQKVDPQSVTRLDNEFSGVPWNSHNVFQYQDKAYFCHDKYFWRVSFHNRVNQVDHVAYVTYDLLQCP
Experimental: Hind-limbs were skinned, severed just above the tibia-tarsus joint and below the metatarsals, and the tibia-tarsus joints (ankles) were weighed, snap frozen and pulverized on dry ice using a hammer and anvil. The pulverized tissue was suspended in 3 volumes (w:v) of ice-cold homogenization buffer containing 50 mM Tris pH 7.5, 150 mM NaCl, 5 mM EDTA, 1% Triton X100, 0.05% Brij 30, 10% dimethylsulfoxide and Complete EDTA-free Protease Inhibitor Cocktail (Roche Diagnostics). The suspended tissue was homogenized sequentially with a Kinematica AG Polytron and a Dounce homogenizer. Homogenates were centrifuged at 16,000×g for 10 min at 4° C. and the soluble fractions were saved. Dimethylsulfoxide was removed from a portion of each soluble fraction using PD MiniTrap™ G-25 desalting columns (GE Healthcare). Homogenates (0.25 mL), free of DMSO, were diluted with an equal volume of binding buffer (i.e., homogenization buffer without dimethylsufoxide) and adjusted to contain 50 μL of a 50% slurry of gelatin-conjugated sepharose. Following 2 hours of rotation at 4° C. the beads were washed twice in binding buffer and eluted in 100 μL 2×-reducing Laemmli buffer with heating to 95° C. for 5 minutes. […]

T1 sequence (P14780 94-707): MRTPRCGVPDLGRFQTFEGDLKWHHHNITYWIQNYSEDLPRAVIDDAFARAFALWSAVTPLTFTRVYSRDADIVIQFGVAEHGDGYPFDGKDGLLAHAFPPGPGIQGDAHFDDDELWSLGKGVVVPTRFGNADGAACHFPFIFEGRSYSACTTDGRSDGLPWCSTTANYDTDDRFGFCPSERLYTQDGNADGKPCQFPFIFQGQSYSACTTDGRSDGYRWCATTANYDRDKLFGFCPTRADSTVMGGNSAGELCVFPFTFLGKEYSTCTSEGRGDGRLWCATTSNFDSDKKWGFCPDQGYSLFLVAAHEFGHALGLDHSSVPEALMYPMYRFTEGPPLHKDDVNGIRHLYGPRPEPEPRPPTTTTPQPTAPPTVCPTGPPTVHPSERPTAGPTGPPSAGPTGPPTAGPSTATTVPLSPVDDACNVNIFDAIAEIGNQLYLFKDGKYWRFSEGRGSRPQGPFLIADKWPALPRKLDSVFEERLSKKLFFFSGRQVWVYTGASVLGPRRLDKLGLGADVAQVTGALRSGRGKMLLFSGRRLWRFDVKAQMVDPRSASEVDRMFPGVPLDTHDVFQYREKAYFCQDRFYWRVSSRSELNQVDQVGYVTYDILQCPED

Cc1nc(C)c(-c2csc(Nc3cc(S(N)(=O)=O)ccc3OC(C)C)n2)s1 [Compound-α, 3-(2′,4′-Dimethyl-[4,5′]bithiazolyl-2-ylamino)-4-isopropoxy-benzenesulfonamide•HBr]
Percent of total signal, 80 kD [1]: 7% | Percent of total signal, 86 kD [1]: 47% | Percent of total signal, 100 kD [1]: 46% | Signal, Total [1]: 91346 INT * mm^2 | Abundance of proMMP9 in ankles ([2]; Day 26, FIG. 3A lanes 4-9): did not reduce the abundance of proMMP9 | Abundance of proMMP9 in ankles ([2]; Day 26, FIG. 3A lanes 4-9, listed as Compound a): did not reduce the abundance of proMMP-9

From patent US20120129872A1, “FUSED HETEROARYL INHIBITORS OF PRO-MATRIX METALLOPROTEINASE ACTIVATION” (priority 2010, published 2012)
